The text below walks through data of patent US20070092444A1, “Inhibition of inward sodium currents in cancer” (priority 2003, published 2007).

“Also recorded” adds a separate entry of the source.

Assay [1] concerns inward Na^+ currents in SK-MG cells. The assay is described as follows: Whole-cell patch clamp, SK-MG glioma cells. It counts as cell-based, human. As for the experimental part:
(§1) FIGS. 7A-7C show representative whole-cell patch clamp recordings.
(§2) The amiloride-sensitive inward Na^+ currents are measured regardless of whether ASIC2 is absent or present (FIGS. 7A-D). Whole-cell patch clamp recordings were obtained from U87-MG, SK-MG, and D54-MG glioma cells in the basal state. […] This inhibition of the inward current occurred regardless of the absence or presence of ASIC2 mRNA (FIG. 7D) (as detected by RT-PCR as described above).
(§3) FIG. 19A show representative whole-cell patch clamp recordings of ZR-75-1 and SKMEL-2 cells in the basal state.

A further assay concerns the target T1, ASIC2 (Homo sapiens, UniProt Q16515).
T1 sequence (Q16515 1-512): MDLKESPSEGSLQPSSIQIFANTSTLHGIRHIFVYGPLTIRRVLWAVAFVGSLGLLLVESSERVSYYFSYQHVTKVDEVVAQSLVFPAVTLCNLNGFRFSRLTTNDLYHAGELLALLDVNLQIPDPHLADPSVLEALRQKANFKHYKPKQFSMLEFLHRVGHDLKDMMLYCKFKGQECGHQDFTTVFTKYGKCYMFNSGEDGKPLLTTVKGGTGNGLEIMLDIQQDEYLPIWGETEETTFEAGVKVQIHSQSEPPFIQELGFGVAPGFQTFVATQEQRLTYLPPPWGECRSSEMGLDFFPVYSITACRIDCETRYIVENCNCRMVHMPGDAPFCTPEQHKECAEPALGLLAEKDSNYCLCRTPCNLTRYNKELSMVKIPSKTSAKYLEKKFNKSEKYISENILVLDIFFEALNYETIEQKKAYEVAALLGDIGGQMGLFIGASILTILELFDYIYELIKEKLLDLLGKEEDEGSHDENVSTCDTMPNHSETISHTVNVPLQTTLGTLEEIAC
The assay is described as follows: Acid-activated currents in voltage-clamped Xenopus oocytes expressing ASIC2. The class given is cell-based. Further details: expressed in transfected cells; host or cells: Xenopus oocytes (cRNA injection). Conditions: pHo 4.0, −60 mV.
Description: (§4) FIGS. 8A-C show acid-activated ASIC currents in Xenopus oocytes. ASIC 2 (FIG. 8A), ASIC1 (FIG. 8B) and the combination of ASIC2 and ASIC1 (FIG. 8C) were examined. […] Each oocyte served as its own control.
(§5) Membrane potential was held at −60 mV, and the pHo was step decreased to 4.0 for 10 s, and then returned to 7.4 for 30 s before repeating the sequence.
(§6) Xenopus oocytes were used to express ASIC1 and ASIC2 mRNA individually and in combination. Oocyte preparation, cRNA injection, and two-electrode voltage clamp recordings were performed as described (33,67-69).
as §5

In assay [2] the test system is constitutive inward Na^+ current of ZR-75-1 breast carcinoma cells. The assay is described as follows: Whole-cell patch clamp, ZR-75-1 breast carcinoma cells. The class given is cell-based.
Description: (§7) FIGS. 5A-5C show representative whole-cell patch clamp recordings.
(§8) FIGS. 19A-19C show representative whole-cell patch clamp recordings.
(§9) A constitutive amiloride-sensitive inward Na^+ conductance was also observed in the breast carcinoma cell line ZR-75-1 and the melanoma cell line SKMEL-2. FIGS. 5A-C show representative whole cell patch-clamp measurements on ZR-75-1 cells and SKMEL-2 cells.
as §3

The subject of assay [3] is constitutive amiloride-sensitive inward Na^+ current in high-grade glioma (GBM) cells. The assay is described as follows: Whole-cell patch clamp, freshly resected and primary cultured high-grade glioma (Grade III/IV, GBM) cells. It counts as cell-based, human.
Description: (§10) FIGS. 2A-C show representative whole-cell patch clamp recordings.
(§11) FIGS. 4A and B show summary I-V curves of freshly resected normal astrocytes (FIG. 4A) and GBM cells (FIG. 4B). Inward currents (−60 mV) were −7.5±1.2 pA (normal) and −43.8±14.5 pA (GBM). Outward currents (+40 mV) averaged 42.2±2.4 pA and 47.2±12.5 pA for normal and GBMs, respectively. FIGS. 4C and D show summary amiloride-sensitive (difference) currents of freshly resected normal astrocytes (FIG. 4C) and GBM cells (FIG. 4D).
(§12) A constitutive amiloride-sensitive inward Na^+ conductance has been reported in human high-grade glioma cells. […] These inward Na^+ currents were not present in normal astrocytes or in low-grade astrocytomas (e.g., pilocytic astrocytomas). However, the composition of the channels responsible for the inward Na^+ conductance has not been reported. FIGS. 2A-C show representative whole cell patch-clamp measurements on tissue derived from a freshly resected human glioblastoma multiforme (GBM; WHO grade IV), normal astrocytes obtained from patients undergoing surgery for intractable epilepsy, and primary cultures of different grade glial tumors. […] However, there was no significant inward Na^+ current in normal astrocytes and Grades I and II astrocytoma cells (FIG. 2C).
Summary current-voltage (I-V) curves are presented for normal astrocytes and GBM cells in FIG. 4A and FIG. 4B, respectively, while difference I-V curves for normal astrocytes and GBM cells are presented in FIG. 4C and FIG. 4D, respectively. The GBM cells are depolarized by an average of 31 mV compared to the normal astrocytes under these recording conditions. The depolarized zero current membrane potential is due to the presence of an enhanced Na^+ conductance as is shown in the difference I-V curves.
as §3

Assay [4] concerns constitutive inward Na^+ current of SKMEL-2 melanoma cells. The assay is described as follows: Whole-cell patch clamp, SKMEL-2 melanoma cells. The class given is cell-based.
Description: as §7, §8, §9, §3
(In general: The patch-clamp technique gives a direct electrical read-out from membranes.)

The target of assay [5] is T2, combination of ASIC1 and ASIC2 (Homo sapiens, UniProt P78348+Q16515).
T2 construct: expressed in transfected cells; host or cells: Xenopus oocytes (cRNA injection)
T2 sequence (P78348 whole entry, one chain of several): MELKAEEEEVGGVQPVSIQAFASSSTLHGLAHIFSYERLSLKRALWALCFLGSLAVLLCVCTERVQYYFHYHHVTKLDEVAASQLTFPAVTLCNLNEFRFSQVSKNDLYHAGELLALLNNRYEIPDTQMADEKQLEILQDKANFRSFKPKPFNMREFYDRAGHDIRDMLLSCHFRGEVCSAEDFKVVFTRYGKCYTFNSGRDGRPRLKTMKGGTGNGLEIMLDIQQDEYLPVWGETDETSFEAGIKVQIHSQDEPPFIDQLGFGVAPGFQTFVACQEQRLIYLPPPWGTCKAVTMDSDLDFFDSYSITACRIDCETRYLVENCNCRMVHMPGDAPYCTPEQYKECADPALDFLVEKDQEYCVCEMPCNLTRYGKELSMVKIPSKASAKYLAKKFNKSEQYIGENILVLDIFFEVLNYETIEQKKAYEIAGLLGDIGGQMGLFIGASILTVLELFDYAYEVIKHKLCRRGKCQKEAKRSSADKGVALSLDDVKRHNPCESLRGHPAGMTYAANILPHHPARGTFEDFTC
The assay is described as follows: Acid-activated currents in voltage-clamped Xenopus oocytes expressing ASIC1 and ASIC2. The class given is cell-based. Conditions: 400 μM amiloride; pHo 4.0; −60 mV.
Description: as §4, §5, §6, §5

Assay [6] has as its system inward Na^+ currents in U87-MG cells. The assay is described as follows: Whole-cell patch clamp, U87-MG glioma cells. It counts as cell-based, human. As for the experimental part:
as §1, §2, §3

The test system of assay [7] is whole-cell currents of normal human astrocytes. The assay is described as follows: Whole-cell patch clamp, normal human astrocytes. It counts as cell-based.
Description: as §10, §11
as §12, with “2C). […]” for “2C).”

The subject of assay [8] is U87-MG cells. The assay is described as follows: Cell growth in culture. It counts as cell-based, human. Conditions: 80 nM PcTX1.
The test system of assay [9] is U87-MG cells. The assay is described as follows: Transwell Migration Assay, U87-MG cells. It counts as cell-based, human. Conditions: 3 h, vitronectin.

As to `N=C(N)NC(=O)c1nc(Cl)c(N)nc1N` [amiloride], the “inhibition of inward Na^+ currents” value in [1] (100 μM amiloride) is “inhibited; also recorded: likewise blocked”; in assay [3] (100 μM amiloride, Grade III and IV tumor cells, GBM) it was “completely inhibited; also recorded: blocked; also recorded: significantly inhibited”; in [6] (100 μM amiloride), “inhibited; also recorded: likewise blocked”. The “inhibition of acid-activated currents” value (on ASIC2 (400 μM amiloride); in assay [5]) was “inhibited” in each case. Also, the “inhibition of inward currents” value in assay [2] (100 μM amiloride) and in [4] (100 μM amiloride) was “completely inhibited” throughout. The effect on currents result in [7] (100 μM amiloride, normal astrocytes) is reported as “did not affect”.

Consider Psalmotoxin 1 [PcTX1], for which the “growth of cells in culture” value with U87-MG cells [8] is listed as “significantly inhibited”. Also, the “block of constitutive inward Na^+ current” value was “blocked” in assay [1] (10 nM peptide); “blocked” in assay [2] (10 nM synthetic PcTX1); “blocked” in assay [3] (10 nM peptide, freshly resected GBM); “blocked” in [4] (10 nM synthetic PcTX1). The “block of acid-induced inward currents” value in the assay with ASIC2 (1 nM peptide (FIG. 20)) is reported as “not those inward Na^+ currents mediated by ASIC2; also recorded: not the inward currents mediated by ASIC2”. For the same compound, in the assay on U87-MG cells [9], the “diminished ability to migrate through the filter” value is greater than 90%. In addition, the “block of inward basally activated currents” value in assay [3] (primary cultured GBM) and in assay [6] was “similarly blocked” throughout. In addition, the “effect on whole-cell currents” value in assay [7] (PcTX1 (10 nM, FIG. 18B), normal human astrocytes) was “without effect”.
